Test results: patent US9492405B2, “Use of fenoterol and fenoterol analogues in the treatment of glioblastomas and astrocytomas” (The United States of America, as represented by the …, priority 2010, dated 2016)
Values joined by “and” are separate entries in the source; they are usually repeats but may differ in a detail not shown here. Identical values can stand only once.

Experiments:
rat cardiomyocyte = experiment: Rat cardiomyocyte contractility model; type: cell-based
1321N1 cells [1] = experiment: Inhibition of mitogenesis, [3H]-thymidine incorporation in 1321N1 cells; type: cell-based, human
in vivo = settings: rat; for Individual plasma concentration: individual rats
Experimental: Dose calculations (mg/kg) were based on the individual body weight measured on the day of treatment. Study duration for pharmacokinetic studies was 6 hours. […] Urine was collected for 0-6 hours and 6 to 24 hours from 3 rats in each treatment group.
In the two-compartment model, the drug distributes into two compartments, the central compartment and the tissue, or peripheral compartment. The central compartment represents the blood, extracellular fluid, and highly perfused tissues. The drug distributes rapidly and uniformly in the central compartment. A second compartment, known as the tissue or peripheral compartment, contains tissues in which the drug equilibrates more slowly. Drug transfer between the two compartments is assumed to take place by first-order processes.
The following abbreviations are utilized in Table 4 below: alpha—macro rate constant associated with the distribution phase; beta—macro rate constant associated with the elimination phase; A, B—zero time intercept associated with the alpha phase and beta phase, respectively; AUC—area under the curve; T1/2 (K10)—half-life associated with the rate constant K10; K10—elimination rate—rate at which the drug leaves the system from the central compartment; K12—rate at which drug enters tissue compartment from the central compartment; K21—rate at which drug enters central compartment from tissue compartment; V1—volume of distribution of the central compartment; V2—volume of distribution of the tissue compartment; Vss—volume of distribution at steady state; and Cl—clearance.

1321N1 cells [2] = experiment: Cell cycle distribution by flow cytometry in 1321N1 cells; settings: for % Phase Distribution G1 / % Phase Distribution G2 / % Phase Distribution S: 20 hours, 1321N1
β2-AR [3] = target: T1, β2-AR (Homo sapiens (Human), UniProt P07550); experiment: β2-AR mediated cAMP accumulation in HEK-β2-AR cells; type: cell-based; settings: read-out: Stimulation of cAMP Accumulation HEK-β2-AR EC50cAMP
Experimental: HEK-β2-AR, 1321N1 or U87MG cells were plated in 96-well plates. When the cells reached confluence, the medium was removed and each well rinsed with 0.1 mL of Krebs-HEPES buffer (130 mM NaCl, 4.8 mM KCl, 1.2 mM KH2PO4, 1.3 mM CaCl2, 1.2 mM MgSO4, 25 mM HEPES, and 10 mM glucose, pH 7.3). The plates were preincubated for 10 minutes at room temperature with buffer alone; then test compound diluted in buffer was added to the wells for quadruplicate determinations. The plates were incubated for an additional 10 minutes with the test compound. After incubation, the medium was removed and 0.1 mL of 0.5 M formic acid was added. After a minimum of 1 hour, the supernatant was removed and lyophilized. cAMP was quantitated using the protein kinase binding assay of Gilman.

[4] = Brain-to-plasma distribution of [3H]-(R,R)-methoxyfenoterol after single IV dose; type: in vivo; settings: rat, IV 5 mg/kg; for Brain level, Mean / Percent of Dose in Brain, Mean / Plasma level, Mean: n=3
Experimental: An overview of the research study design for evaluating the brain-to-plasma distribution of [^3H]
(specific activity 57 Ci/mmol); vehicle was sterile saline, 0.9% sodium chloride, USP. Dose formulations were prepared on the day of the study. The amount of radioactivity in the dose formulation was determined by liquid scintillation. The study lasted for an hour and radioactivity levels in plasma and brain tissue were evaluated at the conclusion of the study. Approximately 5 mls of whole blood was collected. Blood samples were collected via cardiac puncture, transferred into a tube containing K3EDTA as the anticoagulant and kept on wet ice until processed to plasma. To generate plasma, samples were centrifuged within 15 minutes of collection at 2,500 RPM for 15 minutes at room temperature. Plasma was divided equally into three labeled cryovials and stored on ample dry ice until transferred to a freezer set at ≦−20° C. for storage until analysis. Duplicate aliquots were weighed and then combined with scintillation cocktail. The [^3H] radioactivity was determined on a liquid scintillation counter. Brain samples were snap frozen in liquid nitrogen and stored at ≦−70° C. until analysis. Whole brain tissue was homogenized and the weight of the homogenate was determined. Duplicate aliquots from the homogenate were weighed, solubilized and then combined with scintillation cocktail. The [^3H] radioactivity was determined on a liquid scintillation counter.

β2-AR [5] = target: T1, β2-AR; settings: 1321N1; basal below 0.5 nmol/mg protein
[6] = male, Sprague-Dawley, plasma, iv, 5 mg/kg
[7] = IV 5 mg/kg, two-compartment open model

T1 sequence (P07550 whole entry): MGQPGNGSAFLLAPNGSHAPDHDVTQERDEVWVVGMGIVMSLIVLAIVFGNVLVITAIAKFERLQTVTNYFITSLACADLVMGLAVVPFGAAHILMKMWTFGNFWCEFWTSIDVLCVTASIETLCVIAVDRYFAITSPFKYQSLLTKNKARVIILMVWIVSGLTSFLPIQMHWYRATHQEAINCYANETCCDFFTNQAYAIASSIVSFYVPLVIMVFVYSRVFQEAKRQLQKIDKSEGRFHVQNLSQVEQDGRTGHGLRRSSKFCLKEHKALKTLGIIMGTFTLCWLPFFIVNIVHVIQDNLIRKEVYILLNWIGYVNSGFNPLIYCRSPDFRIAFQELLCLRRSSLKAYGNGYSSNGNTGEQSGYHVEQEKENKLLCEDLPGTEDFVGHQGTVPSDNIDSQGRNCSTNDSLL

Compound: CCC(Cc1ccc(OC)cc1)NCC(O)c1cc(O)cc(O)c1 (centres unmarked) [4-methoxy-ethylfenoterol]
- EC50 (rat cardiomyocyte): > 10 µM

Compound: COc1ccc(C[C@@H](C)N(C[C@H](O)c2cc(O)cc(O)c2)C(C)C)cc1 [4-methoxy-isopropylfenoterol]
- EC50 (rat cardiomyocyte): > 10 µM
- IC50 (1321N1 cells [1]; [3H]-thymidine incorporation, 1321N1 cells, mean ± SD, n=4): 0.946 µM

Compound: C[C@H](Cc1ccc(O)cc1)NC[C@H](O)c1cc(O)cc(O)c1 [(R,R)-1, (R,R)-(−)-Fenoterol]
- AUC (in vivo; [6]): 495 ng·h/mL
- Vd (in vivo; [6]): 1.91 L
- clearance (in vivo; [6]): 51.5 mL/min
- half-life (in vivo; [6]): 12.2 min
- K12 (in vivo; IV 5 mg/kg): 0.0119 min⁻¹
- K21 (in vivo; IV 5 mg/kg): 0.0107 min⁻¹
- Plasma concentration, Average (in vivo; IV 5 mg/kg, 5 min): 1340 ng/mL
- Individual plasma concentration (in vivo; IV 5 mg/kg, 5 min): 1.34 µg/mL
- Plasma concentration, Average (in vivo; IV 5 mg/kg, 15 min): 360 ng/mL
- Individual plasma concentration (in vivo; IV 5 mg/kg, 15 min): 0.36 µg/mL
- Plasma concentration, Average (in vivo; IV 5 mg/kg, 30 min): 340 ng/mL
- Individual plasma concentration (in vivo; IV 5 mg/kg, 30 min): 0.17 µg/mL and 0.50 µg/mL
- Plasma concentration, Average (in vivo; IV 5 mg/kg, 60 min): 50 ng/mL
- Individual plasma concentration (in vivo; IV 5 mg/kg, 60 min): 0.05 µg/mL
- Plasma concentration, Average (in vivo; IV 5 mg/kg, 120 min): 20 ng/mL
- Individual plasma concentration (in vivo; IV 5 mg/kg, 120 min): 0.03 µg/mL and 0.01 µg/mL
- Plasma concentration, Average (in vivo; IV 5 mg/kg, 240 min): 10 ng/mL
- Plasma concentration, Average (in vivo; IV 5 mg/kg, 300 min): 5 ng/mL
- Individual plasma concentration (in vivo; IV 5 mg/kg, 300 min): 0.005 µg/mL
- Plasma concentration, Average (in vivo; IV 5 mg/kg, 360 min): 60 ng/mL
- Individual plasma concentration (in vivo; IV 5 mg/kg, 360 min): 0.08 µg/mL and 0.03 µg/mL
- V1 (in vivo; IV 5 mg/kg, central compartment): 906.5 mL
- K10 (in vivo; IV 5 mg/kg, elimination rate): 0.0568 min⁻¹
- V2 (in vivo; IV 5 mg/kg, tissue compartment): 1005.20 mL
- Alpha (in vivo; [7]): 0.0710 min⁻¹
- Beta (in vivo; [7]): 0.0086 min⁻¹
- A (in vivo; IV 5 mg/kg, two-compartment open model, zero time intercept alpha phase): 1.6300 µg/mL
- B (in vivo; IV 5 mg/kg, zero time intercept beta phase): 0.0577 µg/mL
- times more potent than (S,S)-fenoterol and forskolin (1321N1 cells [1]; inhibition of [3H]thymidine incorporation, FIG. 7A): 1000 times
- % Phase Distribution G1 (1321N1 cells [2]; 0.1 nM): 60.6%
- % Phase Distribution G2 (1321N1 cells [2]; 0.1 nM): 1.8%
- % Phase Distribution S (1321N1 cells [2]; 0.1 nM): 37.6%
- % Phase Distribution G1 (1321N1 cells [2]; 10.0 nM): 76.0%
- % Phase Distribution G2 (1321N1 cells [2]; 10.0 nM): 2.1%
- % Phase Distribution S (1321N1 cells [2]; 10.0 nM): 21.9%
- % Phase Distribution G1 (1321N1 cells [2]; 1000 nM): 74.7%
- % Phase Distribution G2 (1321N1 cells [2]; 1000 nM): 0.7%
- % Phase Distribution S (1321N1 cells [2]; 1000 nM): 24.6%
- dose arresting the cell cycle (1321N1 cells [2]; 1321N1, doses as low as): ≤ 0.1 nM
- proportion of cells in G1 phase in treated cells (1321N1 cells [2]; all tested concentrations, controls […]): 60.6-76%

Compound: CC[C@H](Cc1ccc(O)cc1)NC[C@H](O)c1cc(O)cc(O)c1 [(R,R)-ethylfenoterol, (R,R)-(−)-ethylfenoterol]
- EC50 (β2-AR [3]): 0.0028 µM

Compound: CC[C@@H](Cc1ccc(O)cc1)NC[C@H](O)c1cc(O)cc(O)c1 [(R,S)-ethylfenoterol, (R,S)-(−)-ethylfenoterol]
- EC50 (β2-AR [3]): 0.0166 µM

Compound: Cc1ccc(OCC(O)C(C)NC(C)C)c2c1CCC2 (centres unmarked) [ICI 118-551, reference compound]
- pA2 (1321N1 cells [1]; competitive inhibition of (R,R)-fenoterol effect on [3H]-thymidine incorporation, 1321N1): 8.9

Compound: COc1ccc(C[C@@H](C)NC[C@H](O)c2cc(O)cc(O)c2)cc1.Cl [[^3H]-(R,R)-methoxyfenoterol]
- decrease of plasma levels from 5 to 60 minutes [4]: 62%
- Brain level, Individual ([4]; 5 min): 1.00 μg-equiv/g and 0.80 μg-equiv/g and 0.95 μg-equiv/g
- Percent of Dose in Brain, Individual ([4]; 5 min): 0.15% (2×) and 0.12%
- Plasma level, Individual ([4]; 5 min): 3.30 μg-equiv/ml and 3.08 μg-equiv/ml and 3.37 μg-equiv/ml
- Brain level, Mean ([4]; 5 min): 0.92±0.10 μg-equiv/g and 0.92 μg-equiv/g
- Percent of Dose in Brain, Mean ([4]; 5 min): 0.14%
- Plasma level, Mean ([4]; 5 min): 3.25±0.15 μg-equiv/ml and 3.25 μg-equiv/ml
- Brain level, Individual ([4]; 15 min): 0.36 μg-equiv/g and 1.06 μg-equiv/g and 0.99 μg-equiv/g
- Percent of Dose in Brain, Individual ([4]; 15 min): 0.06% and 0.16% and 0.15%
- Plasma level, Individual ([4]; 15 min): 0.89 μg-equiv/ml and 2.29 μg-equiv/ml and 2.19 μg-equiv/ml
- Brain level, Mean ([4]; 15 min): 0.80 μg-equiv/g
- Percent of Dose in Brain, Mean ([4]; 15 min): 0.12%
- Plasma level, Mean ([4]; 15 min): 1.79 μg-equiv/ml
- Brain level, Individual ([4]; 30 min): 0.22 μg-equiv/g and 1.00 μg-equiv/g and 0.95 μg-equiv/g
- Percent of Dose in Brain, Individual ([4]; 30 min): 0.03% and 0.15% (2×)
- Plasma level, Individual ([4]; 30 min): 0.63 μg-equiv/ml and 1.97 μg-equiv/ml and 2.00 μg-equiv/ml
- Brain level, Mean ([4]; 30 min): 0.72 μg-equiv/g
- Percent of Dose in Brain, Mean ([4]; 30 min): 0.11%
- Plasma level, Mean ([4]; 30 min): 1.53 μg-equiv/ml
- Brain level, Individual ([4]; 60 min): 0.44 μg-equiv/g and 0.53 μg-equiv/g and 1.12 μg-equiv/g
- Percent of Dose in Brain, Individual ([4]; 60 min): 0.06% and 0.09% and 0.17%
- Plasma level, Individual ([4]; 60 min): 0.97 μg-equiv/ml and 1.01 μg-equiv/ml and 1.73 μg-equiv/ml
- Brain level, Mean ([4]; 60 min): 0.70±0.37 μg-equiv/g and 0.70 μg-equiv/g
- Percent of Dose in Brain, Mean ([4]; 60 min): 0.11%
- Plasma level, Mean ([4]; 60 min): 1.24±0.43 μg-equiv/ml and 1.24 μg-equiv/ml
- percent dose found in the brain, any given animal ([4]; no more than): no more than 0.17%

Compound: C=C[C@@]1(C)CC(=O)[C@]2(O)[C@@]3(C)[C@@H](O)CCC(C)(C)[C@@H]3[C@H](O)[C@H](OC(C)=O)[C@@]2(C)O1 [forskolin, reference compound]
- intracellular concentration of cAMP after treatment (β2-AR [5]): ~4 nmol/mg protein
- cell cycle arrest (1321N1 cells [2]; 1321N1 cells): induced cell cycle arrest in G1 phase
